Results reported in PMC6510822, “Identification of anticancer OATP2B1 substrates by an in vitro triple-fluorescence-based cytotoxicity screen” (Archives of Toxicology, 2019).
Like-named read-outs stand apart in the source and are kept apart here. Marks after values point to notes of the source that are not given here.

How the values were obtained:
[1] = system: Mes-Sa-B1 cells (Pgp overexpressing); assay: Fluorescence-based cytotoxicity assay, Mes-Sa-B1 mOr; conditions: for RR (Mes-Sa-B1): resistance ratio = IC50 Mes-Sa-B1 / IC50 parental Mes-Sa, triple co-culture screen; for IC50: fluorescent protein based assay
Mes-Sa/Dx5 cells [2] = assay: Fluorescence-based cytotoxicity assay, Mes-Sa/Dx5 eGFP; conditions: for RR (Dx5): resistance ratio = IC50 Mes-Sa/Dx5 / IC50 parental Mes-Sa; for IC50: fluorescent protein based assay
A431 cells [3] = assay: Fluorescence-based cytotoxicity assay, parental A431 eGFP
[4] = system: A431-B1 cells (ABCB1/P-glycoprotein expressing); assay: Fluorescence-based cytotoxicity assay, ABCB1-expressing A431-B1 mCh; conditions: for RR (A431B1): resistance ratio = IC50 A431B1 / IC50 parental A431, triple co-culture screen; for IC50: fluorescent protein based assay
[5] = system: A431-2B1 cells (OATP2B1 expressing); assay: Fluorescence-based cytotoxicity assay, OATP2B1-expressing A431-2B1 mCh; conditions: for SR, monoculture / SR, co-culture: IC50 A431 eGFP / IC50 A4312B1 mCh; for SR (A431-2B1 vs parental A431), screening of DTP Oncology Set IV: primary screen, Fig. 4 inset; for SR (A431-2B1 vs parental A431), screening of DTP Oncology Set IV / SR, co-culture: co-culture; for IC50: 9 concentration points, at least 3 replicates
OATP2B1 [6] = assay: as above; conditions: human
OATP2B1 [7] = target: T1, OATP2B1 (Homo sapiens, UniProt O94956); assay: Inhibition of OATP2B1-mediated Cascade Blue uptake (microplate-based uptake assay, A431-2B1 cells)
T1 sequence (O94956 1-709): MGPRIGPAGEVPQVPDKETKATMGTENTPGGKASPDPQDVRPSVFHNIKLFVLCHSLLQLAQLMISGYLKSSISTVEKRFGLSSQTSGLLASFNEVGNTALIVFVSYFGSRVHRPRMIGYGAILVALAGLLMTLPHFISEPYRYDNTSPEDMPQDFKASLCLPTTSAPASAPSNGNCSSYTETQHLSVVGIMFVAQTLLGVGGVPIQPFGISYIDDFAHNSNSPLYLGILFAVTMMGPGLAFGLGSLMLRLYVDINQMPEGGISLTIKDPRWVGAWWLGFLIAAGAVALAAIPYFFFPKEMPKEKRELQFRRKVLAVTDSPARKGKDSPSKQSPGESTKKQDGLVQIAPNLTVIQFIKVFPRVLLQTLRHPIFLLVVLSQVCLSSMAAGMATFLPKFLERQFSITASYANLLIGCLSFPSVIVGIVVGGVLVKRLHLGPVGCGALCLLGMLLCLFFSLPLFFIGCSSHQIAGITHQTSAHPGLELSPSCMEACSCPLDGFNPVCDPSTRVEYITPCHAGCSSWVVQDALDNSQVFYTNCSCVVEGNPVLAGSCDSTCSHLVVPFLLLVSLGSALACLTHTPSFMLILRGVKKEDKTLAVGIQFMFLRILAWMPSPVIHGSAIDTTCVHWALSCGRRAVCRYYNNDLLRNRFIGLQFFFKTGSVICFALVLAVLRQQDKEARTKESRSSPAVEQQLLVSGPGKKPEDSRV

Mes-Sa/Dx5 cells [8] = system: Mes-Sa/Dx5 cells
A431 cells [9] = assay: PrestoBlue-based cytotoxicity assay, A431; type: cell-based, human; conditions: PrestoBlue viability assay
Method: (§1) All experiments were performed using a robotic pipetting workstation (Hamilton Robotics STAR Let). Cells were seeded at a final cell density of 1875 cells per well in 384-well plates in the triple co-culture (625 cells from each lines) and at 2500 cells per well in the A431 control and A431-2B1 co-culture (1250 cells from both) systems. Co-cultured cells were incubated for 24 h at 37 °C and 5% CO2 under humidified atmosphere prior to the addition of drugs. […] Data were exported to a custom-made program for determining growth inhibition curves for each cell line. In confirmatory screens, compounds were tested with the same method in a nine-point dose response format. For validation, compounds were confirmed in cytotoxicity assays using the PrestoBlue cell viability reagent (ThermoFisher), according to the manufacturer’s instructions.

A431B1 cells = assay: PrestoBlue-based cytotoxicity assay, A431B1; type: cell-based, human; conditions: PrestoBlue viability assay
Method: as §1

A431G2 cells = assay: PrestoBlue-based cytotoxicity assay, A431G2; type: cell-based, human; conditions: PrestoBlue viability assay
Method: as §1

ABCB1 (P-glycoprotein) = assay: Fluorescence-based cytotoxicity assay, ABCB1-expressing A431-B1 mCh; conditions: human
ABCG2 = assay: Fluorescence-based cytotoxicity assay, ABCG2-expressing A431-G2 mOr; conditions: human
Mes-Sa cells [10] = assay: PrestoBlue-based cytotoxicity assay, Mes-Sa; type: cell-based, human; conditions: PrestoBlue viability assay
Method: as §1

Mes-Sa/Dx5 cells [11] = assay: PrestoBlue-based cytotoxicity assay, Mes-Sa/DX5; type: cell-based, human; conditions: PrestoBlue viability assay
Method: as §1

Mes-Sa-B1 cells = assay: PrestoBlue-based cytotoxicity assay, Mes-Sa-B1; type: cell-based, human; conditions: PrestoBlue viability assay
Method: as §1

Mes-Sa cells [12] = assay: Fluorescence-based cytotoxicity assay, parental Mes-Sa mCh; conditions: fluorescent protein based assay
[13] = system: A431-G2 cells (ABCG2 expressing); assay: Fluorescence-based cytotoxicity assay, ABCG2-expressing A431-G2 mOr; conditions: triple co-culture, result in words
[14] = Homo sapiens, A-431, read-out: IC50 (µM) A431 eGFP, co-culture
[15] = Homo sapiens, A-431, read-out: IC50 (µM) A431 eGFP, monoculture
[16] = A431-2B1 mCherry cells (OATP2B1-expressing), monoculture

SMILES	RR (Mes-Sa-B1) [1]	RR (Dx5) (Mes-Sa/Dx5 cells [2]; triple co-culture screen)	IC50 (A431 cells [3]; [14])	IC50 (A431 cells [3]; [15])	RR (A431B1) [4]	SR, monoculture [5]	SR (A431-2B1 vs parental A431), screening of DTP Oncology Set IV [5]	IC50 at […] (OATP2B1 [6])	IC50 at […] (OATP2B1 [6]; [16])	IC50 (OATP2B1 [7])	SR, co-culture [5]	other results
CC(=O)O[C@@]12CO[C@@H]1C[C@H](O)[C@@]1(C)C(=O)[C@H](O)C3=C(C)[C@@H](OC(=O)[C@H](O)[C@@H](NC(=O)OC(C)(C)C)c4ccccc4)C[C@@](O)([C@@H](OC(=O)c4ccccc4)[C@H]21)C3(C)C [NSC-628503, Docetaxel]	275.00	295.00	0.08 µM	0.00097 µM	26.38	4.35^*	4.00	0.002 µM	0.00022 µM	11.3 ± 0.38 µM	–	–
COc1cc([C@@H]2c3cc4c(cc3[C@@H](O[C@@H]3O[C@@H]5CO[C@@H](c6cccs6)O[C@H]5[C@H](O)[C@H]3O)[C@H]3COC(=O)[C@H]23)OCO4)cc(OC)c1O [NSC-122819, Teniposide]	41.88	75.25	0.45 µM	0.83 µM	5.43	6.1^**	4.78	0.07 µM	0.14 µM	4.59 ± 0.4 µM	6.02^*	–
CO[C@@]12[C@H](COC(N)=O)C3=C(C(=O)C(C)=C(N)C3=O)N1C[C@@H]1N[C@@H]12 [NSC-26980, Mitomycin]	–	–	–	–	–	–	–	–	–	–	–	SR (Mes-Sa/DX5) (Mes-Sa/Dx5 cells [8]): 4.407; SR (Mes-Sa-B1) [1]: 0.56
Cc1c(N)nc([C@H](CC(N)=O)NC[C@H](N)C(N)=O)nc1C(=O)N[C@H](C(=O)N[C@H](C)[C@@H](O)[C@H](C)C(=O)N[C@H](C(=O)NCCc1nc(-c2nc(C(=O)NCCC[S+](C)C)cs2)cs1)[C@@H](C)O)[C@@H](OC1OC(CO)C(O)C(O)C1OC1OC(CO)C(O)C(OC(N)=O)C1O)c1cnc[nH]1 (stereo partly shown) [NSC-125066, Bleomycin]	–	–	–	–	–	–	–	–	–	–	–	SR (Mes-Sa/DX5) (Mes-Sa/Dx5 cells [2]; selectivity ratio = IC50 parental Mes-Sa / IC50 Mes-Sa/Dx5, triple co-culture screen): 57.8; IC50 (A431 cells [3]; read-out: IC50 (µM) A431 eGFP, co-culture, co-culture with A431-2B1 mCh, 9 concentration points, at least 3 replicates): 7.47 µM; IC50 (A431 cells [3]; read-out: IC50 (µM) A431 eGFP, monoculture, 9 concentration points, at least 3 replicates): 16.3 µM; IC50 ([5]; read-out: IC50 (µM) A4312B1 mCh, co-culture, co-culture with A431 eGFP): 0.83 µM; IC50 ([5]; read-out: IC50 (µM) A4312B1 mCh, monoculture): 1.5 µM; IC50 (OATP2B1 [7]; read-out: IC50, inhibition of OATP2B1-mediated Cascade Blue (CB) uptake, CB 10 µM, 30 min, average ± SD): 64.2 ± 6.1 µM
CCCCCOC(=O)Nc1nc(=O)n([C@@H]2O[C@H](C)[C@@H](O)[C@H]2O)cc1F [NSC-712807, Capecitabine]	–	–	205 µM	391 µM	–	3.04^**	3.41	44.5 µM	129 µM	124 ± 6.42 µM	4.62^**	–
CN(Cc1cnc2nc(N)nc(N)c2n1)c1ccc(C(=O)N[C@@H](CCC(=O)O)C(=O)O)cc1 [NSC-740, Methotrexate]	–	–	0.38 µM	0.43 µM	–	3.59^**	9.00	0.03 µM	0.12 µM	265 ± 31.4 µM	11.78^**	–
COc1cc([C@@H]2c3cc4c(cc3[C@@H](O[C@@H]3O[C@@H]5CO[C@@H](C)O[C@H]5[C@H](O)[C@H]3O)[C@H]3COC(=O)[C@H]23)OCO4)cc(OC)c1O [NSC-141540, Etoposide]	16.97	> 61.73	7.45 µM	6.42 µM	> 4.14	3.2^*	3.017	0.82 µM	1.99 µM	1.88 ± 0.32 µM	9.06^**	IC50 (A431 cells [9]; Homo sapiens, A-431): 1.19 µM; IC50 (A431B1 cells; Homo sapiens): 5.49 µM; IC50 (A431G2 cells; Homo sapiens): 3.43 µM; IC50 (A431 cells [3]; Homo sapiens, A-431, read-out: IC50 A431, monoculture): 6.1 µM; IC50 (A431 cells [3]; Homo sapiens, A-431, read-out: IC50 A431, triple co-culture): 1.69 µM; IC50 at […] (ABCB1 (P-glycoprotein)): 13.8 µM; IC50 at […] (ABCB1 (P-glycoprotein); A431-B1 mCherry cells (ABCB1-expressing), monoculture): 46.3 µM; IC50 at […] (ABCG2): 4.05 µM; IC50 at […] (ABCG2; A431-G2 mOrange cells (ABCG2-expressing), monoculture): 12 µM
Oc1c(CN2CCCCC2)ccc2cccnc12 [NSC57969]	–	–	–	–	–	–	–	–	–	–	–	IC50 (A431 cells [9]): 4.93 µM; IC50 (A431B1 cells): 0.974 µM; IC50 (A431G2 cells): 5.76 µM; IC50 (Mes-Sa cells [10]): 4.89 µM; IC50 (Mes-Sa/Dx5 cells [11]): 0.815 µM; IC50 (Mes-Sa-B1 cells): 1.48 µM; IC50 ([1]; read-out: IC50 Mes-Sa-B1, monoculture, monoculture): 2.81 µM; IC50 ([1]; read-out: IC50 Mes-Sa-B1, triple co-culture, triple co-culture): 1.8 µM; IC50 (Mes-Sa/Dx5 cells [2]; read-out: IC50 Mes-Sa/DX5, monoculture, monoculture): 0.951 µM; IC50 (Mes-Sa/Dx5 cells [2]; read-out: IC50 Mes-Sa/DX5, triple co-culture, triple co-culture): 0.177 µM; IC50 (A431 cells [3]; read-out: IC50 A431, monoculture, fluorescent protein based assay, monoculture): 5.13 µM; IC50 (A431 cells [3]; read-out: IC50 A431, triple co-culture, fluorescent protein based assay, triple co-culture): 7.09 µM; IC50 (Mes-Sa cells [12]; read-out: IC50 Mes-Sa, monoculture, monoculture): 5.08 µM; IC50 (Mes-Sa cells [12]; read-out: IC50 Mes-Sa, triple co-culture, triple co-culture): 3.21 µM; IC50 ([4]; read-out: IC50 A431B1, monoculture, monoculture): 0.774 µM; IC50 ([4]; read-out: IC50 A431B1, triple co-culture, triple co-culture): 2.78 µM; Effect of ABCG2 expression on toxicity (A431-G2 vs parental A431) [13]: did not sensitize
